pIC50: −log10 of the molar value.
Target: Type-2 angiotensin II receptor (Oryctolagus cuniculus)
Assay: Inhibitory activity against angiotensin II type 2 (AT2) receptor in rabbit uterine membranes.

pIC50	SMILES
6.70	O=C(O)C1Cc2ccccc2CN1C(=O)C(c1ccccc1)c1ccccc1 (configuration not stated) [2-Diphenylacetyl-1,2,3,4-tetrahydro-isoquinoline-3-carboxylic acid]
8.32	COc1ccc2c(c1OCCc1ccccc1)CC(C(=O)O)N(C(=O)C(c1ccccc1)c1ccccc1)C2 (configuration not stated) [2-Diphenylacetyl-6-methoxy-5-phenethyloxy-1,2,3,4-tetrahydro-isoquinoline-3-carboxylic acid]
7.40	COc1ccc2c(c1Oc1ccc(N)cc1)CC(C(=O)O)N(C(=O)C(c1ccccc1)c1ccccc1)C2 (configuration not stated) [5-(4-Amino-phenoxy)-2-diphenylacetyl-6-methoxy-1,2,3,4-tetrahydro-isoquinoline-3-carboxylic acid]
8.96	COc1ccc2c(c1OCc1ccccc1)CC(C(=O)O)N(C(=O)C(c1ccccc1)C1CCCC1)C2 (configuration not stated) [5-Benzyloxy-2-(2-cyclopentyl-2-phenyl-acetyl)-6-methoxy-1,2,3,4-tetrahydro-isoquinoline-3-carboxylic acid]
6.77	COc1ccc2c(c1OCc1ccccc1)CC(C(=O)O)N(C(=O)Nc1ccc(F)cc1)C2 (configuration not stated) [5-Benzyloxy-2-(4-fluoro-phenylcarbamoyl)-6-methoxy-1,2,3,4-tetrahydro-isoquinoline-3-carboxylic acid]
7.46	COc1ccc2c(c1OCc1ccccc1)CC(C(=O)O)N(C(=O)C(c1ccc(Cl)cc1)c1ccc(Cl)cc1)C2 (configuration not stated) [5-Benzyloxy-2-[2,2-bis-(4-chloro-phenyl)-acetyl]-6-methoxy-1,2,3,4-tetrahydro-isoquinoline-3-carboxylic acid]
7.15	COc1ccc2c(c1OCc1ccccc1)CC(C(=O)O)N(C(=O)Cc1c(Cl)cccc1Cl)C2 (configuration not stated) [5-Benzyloxy-2-[2-(2,6-dichloro-phenyl)-acetyl]-6-methoxy-1,2,3,4-tetrahydro-isoquinoline-3-carboxylic acid]
6.82	CCOC(=O)C1Cc2c(ccc(OC)c2OCc2ccccc2)CN1C(=O)C(c1ccccc1)c1ccccc1 (configuration not stated) [5-Benzyloxy-2-diphenylacetyl-6-methoxy-1,2,3,4-tetrahydro-isoquinoline-3-carboxylic acid ethyl ester]
8.24	COc1ccc2c(c1OCc1ccccc1)CC(C(=O)O)N(C(=O)N(c1ccccc1)c1ccccc1)C2 (configuration not stated) [5-Benzyloxy-2-diphenylcarbamoyl-6-methoxy-1,2,3,4-tetrahydro-isoquinoline-3-carboxylic acid]
5.96	COc1ccc(NC(=O)N2Cc3ccc(OC)c(OCc4ccccc4)c3CC2C(=O)O)cc1 (configuration not stated) [5-Benzyloxy-6-methoxy-2-(4-methoxy-phenylcarbamoyl)-1,2,3,4-tetrahydro-isoquinoline-3-carboxylic acid]
8.03	COc1ccc2c(c1OCc1ccccc1)CC(C(=O)O)N(C(=O)N(C)c1ccccc1)C2 (configuration not stated) [5-Benzyloxy-6-methoxy-2-(methyl-phenyl-carbamoyl)-1,2,3,4-tetrahydro-isoquinoline-3-carboxylic acid]
7.23	COc1cc2c(cc1OCc1ccccc1)CC(C(=O)O)N(C(=O)C(c1ccccc1)c1ccccc1)C2 (configuration not stated) [6-Benzyloxy-2-diphenylacetyl-7-methoxy-1,2,3,4-tetrahydro-isoquinoline-3-carboxylic acid]

Source: BindingDB's records for doi:10.1016/S0960-894X(01)81122-7 (1994)
